{"source": "paper PMC11578313", "about": "“Miniaturized Modular Click Chemistry‐enabled Rapid Discovery of Unique SARS‐CoV‐2 M^pro Inhibitors With Robust Potency and Drug‐like Profile” (Advanced Science, 2024)", "key": {"[1]": {"test_system": "SARS‐CoV‐2 Delta (hCoV‐19/Korea/KDCA119861/2021)", "experiment": "microbe, parasite or virus in culture", "assay_type": "cell-based", "settings": "Severe acute respiratory syndrome coronavirus 2; Calu‐3; read-out: EC50 ± SD, SARS‐CoV‐2 Delta"}, "[2]": {"test_system": "SARS‐CoV‐2 Omicron (hCoV‐19/Korea/KDCA447321/2021)", "experiment": "microbe, parasite or virus in culture", "assay_type": "cell-based", "settings": "Severe acute respiratory syndrome coronavirus 2, Calu-3, read-out: EC50 ± SD, SARS‐CoV‐2 Omicron"}, "HCoV‐OC43": {"test_system": "HCoV‐OC43", "experiment": "microbe, parasite or virus in culture", "assay_type": "cell-based", "settings": "Betacoronavirus 1, OC43, MRC5, read-out: EC50 ± SD, HCoV‐OC43"}, "MERS‐CoV": {"test_system": "MERS‐CoV", "experiment": "microbe, parasite or virus in culture", "assay_type": "cell-based", "settings": "Middle East respiratory syndrome-related coronavirus, Huh-7, read-out: EC50 ± SD, MERS‐CoV"}, "[3]": {"test_system": "SARS‐CoV‐2 (hCoV‐19/Korea/KCDC06/2020, wild type)", "experiment": "microbe, parasite or virus in culture", "assay_type": "cell-based"}, "in vitro [4]": {"experiment": "in vitro", "settings": "human"}, "[5]": {"test_system": "SARS‐CoV‐2 Gamma (hCoV‐19/Korea/KDCA95637/2021)", "experiment": "microbe, parasite or virus in culture", "assay_type": "cell-based", "settings": "Severe acute respiratory syndrome coronavirus 2; Calu‐3; read-out: EC50 ± SD, SARS‐CoV‐2 Gamma"}, "in vitro [6]": {"experiment": "in vitro", "settings": "rhesus monkey"}, "in vitro [7]": {"experiment": "in vitro", "settings": "African green monkey"}, "in vivo": {"experiment": "in vivo", "settings": "ICR, mouse, po, p.o. 10 mg kg^−1 with 20 mg kg^−1 ritonavir, ICR mice, n = 3"}, "SARS‐CoV‐2": {"test_system": "SARS‐CoV‐2", "experiment": "microbe, parasite or virus in culture", "assay_type": "cell-based", "settings": "Severe acute respiratory syndrome coronavirus 2, Vero"}, "MRC‐5 cells": {"test_system": "MRC‐5 cells", "settings": "human"}, "in vitro [8]": {"experiment": "in vitro", "settings": "human", "remark": "listed apart in the source"}, "HCoV‐229E": {"test_system": "HCoV‐229E", "experiment": "microbe, parasite or virus in culture", "assay_type": "cell-based", "settings": "Human coronavirus 229E, MRC5, read-out: EC50 ± SD, HCoV‐229E"}, "HCoV‐NL63": {"test_system": "HCoV‐NL63", "experiment": "microbe, parasite or virus in culture", "assay_type": "cell-based", "settings": "Human coronavirus NL63, LLC-MK2, read-out: EC50 ± SD, HCoV‐NL63"}}, "note": "Where two headings read alike, the source gives them in different places."}
{"smiles": "CC(C)(C)[C@H](NC(=O)C(F)(F)F)C(=O)N1C[C@H]2[C@@H]([C@H]1C(=O)N[C@H](C#N)C[C@@H]1CCNC1=O)C2(C)C", "note": "[Nirmatrelvir, reference compound]", "values": [{"measurement": "EC50", "setting": "[1]", "value": "3.7 ± 0.598", "unit": "µM"}, {"measurement": "EC50", "setting": "[2]", "value": "3.39 ± 0.245", "unit": "µM"}, {"measurement": "EC50", "setting": "HCoV‐OC43", "value": "< 46", "unit": "nM"}, {"measurement": "EC50", "setting": "MERS‐CoV", "value": 58, "unit": "nM"}, {"measurement": "EC50", "setting": "[3]; Severe acute respiratory syndrome coronavirus 2, Calu-3, read-out: EC50, anti‐SARS‐CoV‐2 activity in Calu‐3 cells (Figure 3B)", "value": 1950, "unit": "nM"}, {"measurement": "EC50", "setting": "[3]; Severe acute respiratory syndrome coronavirus 2, Calu-3, read-out: EC50 ± SD, Calu‐3 cells, with P‐gp inhibitor", "value": "< 46", "unit": "nM"}, {"measurement": "EC50", "setting": "[3]; Severe acute respiratory syndrome coronavirus 2, Calu-3, read-out: EC50 ± SD, Calu‐3 cells, without P‐gp inhibitor", "value": "1000 ± 31", "unit": "nM"}, {"measurement": "EC50", "setting": "[3]; Severe acute respiratory syndrome coronavirus 2, Calu-3, read-out: EC50 ± SD, SARS‐CoV‐2 Wild‐type", "value": 2780, "unit": "nM"}, {"measurement": "CC50", "setting": "in vitro [4]", "value": "> 100", "unit": "µM"}, {"measurement": "CC50 at 2 day", "setting": "in vitro [4]; CC50 (Table 3), Calu‐3 cells", "value": "> 100", "unit": "µM"}, {"measurement": "CC50 at 2 day", "setting": "in vitro [4]; CC50, Calu‐3 cells, MTT assay", "value": "> 100", "unit": "µM"}, {"measurement": "EC50", "setting": "[5]", "value": "3.43 ± 0.519", "unit": "µM"}, {"measurement": "CC50", "setting": "in vitro [6]", "value": "> 100", "unit": "µM"}, {"measurement": "CC50 at 2 day", "setting": "in vitro [7]", "value": "> 100", "unit": "µM"}, {"measurement": "Cmax", "setting": "in vivo; 10 mg/kg, Cmax, p.o. in combination with ritonavir", "value": "7450 ± 715", "unit": "ng/mL"}, {"measurement": "MRT", "setting": "in vivo; 10 mg/kg, MRT0‐t, p.o. in combination with ritonavir", "value": "1.55 ± 0.051", "unit": "h"}, {"measurement": "MRT", "setting": "in vivo; 10 mg/kg, MRT0‐∞, p.o. in combination with ritonavir", "value": "1.55 ± 0.055", "unit": "h"}, {"measurement": "half-life", "setting": "in vivo; 10 mg/kg, t1/2, p.o. in combination with ritonavir", "value": "41.5 ± 12.2", "unit": "min"}, {"measurement": "AUC", "setting": "in vivo; AUC0‐t, p.o. in combination with ritonavir", "value": 14600, "unit": "ng·h/mL"}, {"measurement": "EC50", "setting": "SARS‐CoV‐2; read-out: EC50 ± SD, Vero cells, with P‐gp inhibitor", "value": "< 46", "unit": "nM"}, {"measurement": "EC50", "setting": "SARS‐CoV‐2; read-out: EC50 ± SD, Vero cells, without P‐gp inhibitor", "value": "2080 ± 214", "unit": "nM"}, {"measurement": "CC50", "setting": "MRC‐5 cells", "value": "> 100", "unit": "µM"}, {"measurement": "CC50", "setting": "in vitro [8]", "value": "> 100", "unit": "µM"}, {"measurement": "EC50", "setting": "HCoV‐229E", "value": 378, "unit": "nM"}, {"measurement": "EC50", "setting": "HCoV‐NL63", "value": "> 100", "unit": "µM"}]}
